# Assay results published in US6485941B1, “Inhibition of the carboxyltransferase component of acetyl-CoA carboxylase, and the use of such inhibition in anti-cancer and anti-lipogenic therapies” (Board of Supervisors of Louisiana State University and …, priority 2002, dated 2002).
# Columns and labels:
# citrate synthase = assay: Coupling enzyme control (NAD+ reduction after addition of acetyl-CoA); assay type: biochemical; conditions: 0.6 mM compound
# Description: (§1) Carboxyltransferase was assayed in the reverse direction: the production of acetyl-CoA was detected by using the coupling enzymes malate dehydrogenase and citrate synthase, and the reduction of NAD^+ was measured spectrophotometrically by the method of C. Blanchard et al., J. Biol. Chem. 273, 19140-19145 (1998); and R. Guchhait et al., Methods Enzymol. 35, 32-37 (1975).
# (§2) The bisubstrate analog had previously been observed not to inhibit the activity of either of these coupling enzymes at 0.6 mM, a value three times higher than the highest concentration used in the inhibition studies.
# malate dehydrogenase = assay: as above; assay type: biochemical; conditions: 0.6 mM compound
# Description: as §1, §2
# [1] = molecular target: T1, murine acetyl-CoA carboxylase (Mus musculus, UniProt Q5SWU9); assay: Acetyl-CoA carboxylase activity in cell-free extracts of pre-adipocytes, compound added to extract; assay type: biochemical
# T1 construct: endogenous in cells; host or cells: murine 3T3-L1 pre-adipocytes (cytosolic extract)
# Description: (§3) The above procedure was modified to prepare extracts for enzymatic analysis. The non-denaturing buffer in that case contained 150 mM KCl instead of NaCl, and there was no Triton X-100, Nonidet P-40, nor any protease or phosphatase inhibitors in the buffer. The cell monolayers were scraped into this buffer, and were homogenized with 16 strokes in a Dounce homogenizer. The homogenates were centrifuged at 10,000 g for 5 minutes, and the supernatants were saved as cytosolic extract, quantitated, and used to assay acetyl-CoA carboxylase activity.
# The activity of acetyl-CoA carboxylase from 3T3-L1 cell lysates was determined in a fixed-time assay using HPLC. HPLC is not normally used in this field, because cell lysates are mixtures of such a large number of different components; it would be more conventional to use an assay employing radioactivity. […] This assay will be useful in monitoring the progress and reaction of patients who are administered treatment in accordance with this invention.
# (§4) Assays were performed by measuring the loss of acetyl-CoA, or the production of malonyl-CoA, at 5 minute intervals for 20 minutes, using reverse-phase HPLC. […] Rates were calculated by linear regression analysis of malonyl-CoA concentration as a function of time. […] Following termination of the reaction, the samples were centrifuged (3 min, 10,000 g) and then analyzed by HPLC. […]
# [2] = molecular target: T2, carboxyltransferase component of E. coli acetyl-CoA carboxylase (Escherichia coli, UniProt P0A9Q5+P0ABD5); assay: Carboxyltransferase inhibition, assayed in the reverse direction with coupled spectrophotometric detection; assay type: biochemical
# T2 construct: made in house; host or cells: E. coli overexpression strain (Blanchard et al. 1998; G. Waldrop, LSU)
# T2 sequence (P0ABD5 1-319): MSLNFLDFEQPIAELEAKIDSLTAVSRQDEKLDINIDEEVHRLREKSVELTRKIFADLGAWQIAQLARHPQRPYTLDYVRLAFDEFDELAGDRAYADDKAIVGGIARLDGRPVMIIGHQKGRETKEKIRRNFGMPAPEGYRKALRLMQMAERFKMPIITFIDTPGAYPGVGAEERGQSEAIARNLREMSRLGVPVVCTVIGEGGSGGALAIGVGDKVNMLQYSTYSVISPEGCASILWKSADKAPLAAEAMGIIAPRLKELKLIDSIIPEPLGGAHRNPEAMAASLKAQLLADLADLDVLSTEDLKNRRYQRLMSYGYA
# T2 sequence (P0A9Q5 1-304): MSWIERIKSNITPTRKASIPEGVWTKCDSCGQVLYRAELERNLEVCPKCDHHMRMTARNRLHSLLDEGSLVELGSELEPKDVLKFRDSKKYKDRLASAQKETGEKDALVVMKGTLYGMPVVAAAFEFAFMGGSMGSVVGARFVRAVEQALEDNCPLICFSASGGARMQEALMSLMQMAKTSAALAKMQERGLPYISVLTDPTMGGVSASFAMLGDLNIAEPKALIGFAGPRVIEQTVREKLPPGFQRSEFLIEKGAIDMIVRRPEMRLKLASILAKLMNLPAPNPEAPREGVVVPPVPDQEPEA
# Description: Carboxyltransferase was purified from a strain of E. coli that overexpresses the genes encoding the α and β subunits of the enzyme. C. Blanchard et al., J. Biol. Chem. 273, 19140-19145 (1998). (E. coli strain available on request from G. Waldrop, Department of Biological Sciences, Louisiana State University, Baton Rouge, La.) The published procedure was modified slightly. Bacteria were grown to saturation at 37° C. in 1 L of LB medium in 2 L flasks, and were then induced with 1 g of lactose and incubated without shaking at 25° C. for 24 h. The concentration of carboxyltransferase was determined by the method of M. Bradford, Anal. Biochem. 72, 248-254 (1976) using bovine serum albumin as a standard.
# as §1
# In Equations [1] and [2], v is the initial velocity, Vm is the maximal velocity, A is the substrate concentration, I is the concentration of inhibitor, Km is the Michaelis constant, Kis is the slope inhibition constant, and Kii is the intercept inhibition constant.
# v=VmA/(Km(1+I/Kis)+A(1+I/Kii))
# The activity of carboxyltransferase was measured in the reverse direction using malonyl-CoA and biocytin as substrates.
# 3T3-L1 pre-adipocytes = assay: 3T3-L1 adipocyte differentiation (Western blot of transcription factors, Oil Red O staining); assay type: cell-based, murine
# Description: Murine 3T3-L1 pre-adipocytes (a kind gift from Howard Green, Harvard University, Cambridge, Mass.) were plated and grown to 2 days post-confluence in DMEM supplemented with 10% bovine serum. Medium was changed every 48 hours. Cells were induced to differentiate into adipocytes by changing the medium to DMEM supplemented with 10% fetal bovine serum (FBS), 0.5 mM 3-isobutyl-1-methylxanthine (MIX) (Sigma), 1 μM dexamethasone (DEX) (Sigma), and 1.7 μM insulin (Sigma). After 48 hours this medium was replaced with DMEM supplemented with 10% FBS, and the cells were maintained in this medium until they were used in experiments. Compound 2 was dissolved in DMSO and added to the cell culture media at a 1:1000 dilution for experiments. Vehicle additions were also conducted for each experiment as controls.
# Monolayers of 3T3-L1 adipocytes were rinsed with phosphate-buffered saline (PBS) and then harvested in a non-denaturing buffer containing 150 mM NaCl, 10 mM Tris, pH 7.4, 1 mM EGTA, 1 mM EDTA, 1% Triton-X 100, 0.5% Nonidet P-40 detergent (Sigma), 1 μM PMSF (phenylmethylsulfonyl fluoride protease inhibitor, Sigma), 1 μM pepstatin (Sigma), 50 trypsin inhibitory milliunits of aprotinin (Sigma), 10 μM leupeptin (Sigma), and 2 mM sodium vanadate (Fisher Chemical, Fair Lawn, […]) for Western blot analysis. Samples were extracted for 30 minutes on ice and centrifuged at 10,000 g at 4° C. for 15 minutes. Supernatants containing whole cell extracts were analyzed for protein content using a BCA kit (Pierce) according to the manufacturer's instructions.
# Proteins were separated in 5%, 7.5%, or 12% polyacrylamide (National Diagnostics, […].) gel containing sodium dodecyl sulfate (SDS) following the procedure of U. Laemmli, Nature 227, 680-685 (1970). Proteins were then transferred to nitrocellulose (BioRad, Atlanta, Ga.) in 25 mM Tris, 192 mM glycine, and 20% methanol. Following transfer, the membrane was blocked in 4% milk (non-fat, dried milk reconstituted in water at a 4% concentration (w/v)) for 1 hour at room temperature. Results were visualized with horseradish peroxidase (HRP)-conjugated secondary antibodies (Sigma) and enhanced chemiluminescence (Pierce).
# The murine 3T3-L1 pre-adipocyte cell line was used to examine the effects of Compound 2 on adipocyte differentiation. The 3T3-L1 cell line can be induced to differentiate in culture from fibroblasts, or pre-adipocytes, into cells with the morphological and biochemical properties of adipocytes. […] For example, these cells accumulate lipids, respond to insulin, and secrete leptin. The 3T3-L1 pre-adipocytes were first grown to a confluent monolayer. At two days post-confluence, the cells were exposed to a “differentiation cocktail” (FBS, MIX, DEX, and insulin) for 48 hours, and the cells were then maintained in 10% FBS in DMEM in the presence or absence of various doses of Compound 2. A vehicle addition of DMSO was also performed as a control. Compound 2 or DMSO was added in a 1-to-1000 dilution to the cell culture medium every 24 hours. One week after treatment with the differentiation cocktail, whole cell extracts were prepared, and cells were stained with Oil Red O to assess lipid accumulation.
# The differentiation of pre-adipocytes into adipocytes has been attributed, in part, to increased expression of several transcription factors, including PPARγ and STATs 1, 5A, and 5B. To observe the differentiation of pre-adipocytes into adipocytes, the expression of these transcription factors was examined by Western blot analysis (data not shown). Adipogenesis was also assessed by examining lipid accumulation, as judged by Oil Red O staining (data not shown).
# Whole cell extracts were prepared one week after the induction of differentiation in the presence of 0, 1, 2, 4, 8, or 17 μM doses of Compound 2, or treatment with DMSO (vehicle), with treatments in each case repeated every 24 hours. […]
# [3] = system: breast cancer cell line MCF7; assay: MCF7 cellular proliferation (counting viable cells as a function of time); assay type: cell-based; conditions: preliminary data; number of viable cells as a function of time
# Excerpt: Cancer cells also typically have high levels of fatty acid synthesis. Various inhibitors of fatty acid synthesis are currently in clinical trials for the treatment of breast cancers. Since acetyl-CoA carboxylase—not fatty acid synthase—is the rate-limiting enzyme in fat synthesis, the inhibition of acetyl-CoA carboxylase with the bisubstrate analog should be at least as effective in treating cancers as fatty acid synthesis inhibitors, if not more so.
# acetyl-CoA carboxylase = molecular target: T3, acetyl-CoA carboxylase (Mus musculus, UniProt Q5SWU9); assay: Acetyl-CoA carboxylase activity in lysates of treated pre-adipocytes (HPLC fixed-time assay); assay type: cell-based, murine; conditions: pre-adipocytes treated with 10 μM for four hours; DMSO control 1.40 nmol/min-mg
# T3 construct: endogenous in cells; host or cells: murine 3T3-L1 pre-adipocytes (cytosolic extract)
# Description: as §3
# The activity of acetyl-CoA carboxylase from 3T3-L1 cell lysates was determined in a fixed-time assay using HPLC. HPLC is not normally used in this field, because cell lysates are mixtures of such a large number of different components; it would be more conventional to use an assay employing radioactivity. […]
# as §4
# We also examined whether there was a concomitant decrease in the activity of acetyl-CoA carboxylase. […] Acetyl-CoA carboxylase activity was measured by analytical reverse phase HPLC. […]
Compound,inhibition of coupling enzyme citrate synthase (citrate synthase),inhibition of coupling enzyme malate dehydrogenase (malate dehydrogenase),effect on acetyl-CoA carboxylase activity in cell-free extracts [1],Ki [2] [µM],binding energy of the inhibitor relative to the sum of binding energies of the two substrates (times less) [2],factor by which the product of the substrate dissociation constants exceeds the inhibition constant ([2]; Km of malonyl-CoA and biocytin used as dissociation constants),inhibition pattern with malonyl-CoA as the variable substrate ([2]; biocytin held constant at 6.0 mM),inhibition pattern with biocytin as the variable substrate ([2]; malonyl-CoA held constant at 0.1 mM),"Km ([2]; substrate of carboxyltransferase, reverse direction) [mM]","adipocyte differentiation of 3T3-L1 cells (3T3-L1 pre-adipocytes; 0, 1, 2, 4, 8 or 17 μM, repeated every 24 hours, one week)",induction of PPARγ expression (Western blotting) (3T3-L1 pre-adipocytes; 17 μM or 8 μM),lipid accumulation (Oil Red O staining) (3T3-L1 pre-adipocytes; 17 μM or 8 μM),levels of STAT3 (3T3-L1 pre-adipocytes; Western blot),"expression of STATs 1 and 5A (3T3-L1 pre-adipocytes; Western blot, during induced differentiation)",reversibility of inhibition of differentiation (3T3-L1 pre-adipocytes; compound not re-added at 24 hour intervals after initial treatment),cellular proliferation of MCF7 [3],activity of acetyl-CoA carboxylase from treated cells (acetyl-CoA carboxylase) [nmol malonyl-CoA/min-mg]
CC(C)(COP(=O)(O)OP(=O)(O)OCC1OC(n2cnc3c(N)ncnc32)C(O)C1OP(=O)(O)O)C(O)C(=O)NCCC(=O)NCCSCC(=O)N1C(=O)NC2C(CCCCC(=O)OCc3ccccc3)SCC21 (stereo not drawn) [Compound 1],No decrease in activity,No decrease in activity,inhibited murine acetyl-CoA carboxylase activity,23 ± 2,about 1.3,about 35,competitive inhibition,noncompetitive inhibition,,,,,,,,,
N[C@@H](CCCCNC(=O)CCCC[C@@H]1SC[C@@H]2NC(=O)N[C@@H]21)C(=O)O [biocytin],,,,,,,,,8,,,,,,,,
"phenylmethyl 5-(6,8-diaza-6-(2-X-acetyl)-7-oxo-3-thiabicyclo[3.3.0]oct-2-yl)pentanoate [Compound 2]",,,had no effect,,,,,,,inhibited adipocyte differentiation of 3T3-L1 cells in a dose-dependent manner,blocked the induction of PPARγ expression,blocked lipid accumulation,unaffected,inhibited in a dose-dependent manner,reversible,inhibited cellular proliferation in that cell line in a dose-dependent manner,0.30
